From article PMC11249017 (Journal of Medicinal Chemistry, 2024)
“Also recorded” adds a separate entry of the source. Marks after values point to notes of the source that are not given here.

Columns and labels:
Molm-13 cells = test: IP-One assay in AML cells; assay type: cell-based; settings: 90 minutes stimulation
ML-2 cells = test: IP-One assay in AML cells; assay type: cell-based; settings: 90 minutes stimulation
[1] = system: CHO-K1 cells overexpressing only GNA11 but not G2A; settings: control cells without G2A; ONC compounds at ≥ 30 μM
G2A = settings: weak antagonist of G2A; cited from earlier work
human G2A [2] = target: human G2A (Homo sapiens, UniProt Q9UNW8); settings: compared with T-10418; 15 min after addition
Target sequence in this assay (P32121 whole entry partner, one chain of several): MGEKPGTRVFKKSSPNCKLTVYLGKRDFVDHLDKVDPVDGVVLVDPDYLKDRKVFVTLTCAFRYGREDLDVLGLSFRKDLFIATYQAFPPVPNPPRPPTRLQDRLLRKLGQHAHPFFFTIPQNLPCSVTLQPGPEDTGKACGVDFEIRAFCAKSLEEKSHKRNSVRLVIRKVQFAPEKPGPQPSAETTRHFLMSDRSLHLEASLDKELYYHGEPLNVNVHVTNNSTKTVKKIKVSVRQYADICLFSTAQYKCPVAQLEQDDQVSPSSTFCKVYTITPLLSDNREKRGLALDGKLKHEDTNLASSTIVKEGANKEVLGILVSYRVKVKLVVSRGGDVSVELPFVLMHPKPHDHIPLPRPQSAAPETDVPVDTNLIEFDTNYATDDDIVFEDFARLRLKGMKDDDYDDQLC

[3] = system: capsaicin-induced TRPV1 responses in mouse primary sensory neurons; test: Calcium-imaging-based TRPV1 sensitization assay; assay type: cell-based
GPR1 = GPR1 (Homo sapiens, UniProt P46091); assay type: cell-based; settings: 60 μM, no endogenous ligand applied
GPR1, sequence (P46091 whole entry): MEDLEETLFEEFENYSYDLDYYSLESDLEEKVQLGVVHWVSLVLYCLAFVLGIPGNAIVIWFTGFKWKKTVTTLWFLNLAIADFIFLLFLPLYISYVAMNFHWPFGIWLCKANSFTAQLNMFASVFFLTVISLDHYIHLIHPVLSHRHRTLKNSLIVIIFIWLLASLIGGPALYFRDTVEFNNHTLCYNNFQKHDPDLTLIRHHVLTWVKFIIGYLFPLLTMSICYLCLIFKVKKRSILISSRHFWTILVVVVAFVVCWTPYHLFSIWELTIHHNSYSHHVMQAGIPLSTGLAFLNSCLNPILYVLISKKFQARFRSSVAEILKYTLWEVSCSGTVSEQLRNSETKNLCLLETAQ
GPR1, sequence (P32121 whole entry partner): as the sequence (P32121 whole entry partner, one chain of several) above

human G2A [4] = target: T1, human G2A (Homo sapiens, UniProt Q9UNW8); settings: ratio of EC50 values
T1 sequence (Q9UNW8 1-380): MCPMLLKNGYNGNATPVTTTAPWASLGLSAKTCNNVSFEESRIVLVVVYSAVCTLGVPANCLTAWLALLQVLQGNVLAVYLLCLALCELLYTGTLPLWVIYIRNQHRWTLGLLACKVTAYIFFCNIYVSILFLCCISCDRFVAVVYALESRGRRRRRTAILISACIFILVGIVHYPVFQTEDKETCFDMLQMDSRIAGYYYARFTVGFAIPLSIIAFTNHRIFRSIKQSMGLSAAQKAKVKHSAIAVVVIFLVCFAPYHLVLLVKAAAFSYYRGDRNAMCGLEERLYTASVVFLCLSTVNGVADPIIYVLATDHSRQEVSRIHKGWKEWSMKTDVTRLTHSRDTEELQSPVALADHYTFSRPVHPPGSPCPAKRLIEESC

Aqueous solubility = settings: PBS with 1% DMSO, pH 7.4, aqueous solubility, PBS buffer
[5] = Pharmacokinetics in male C57Bl/6N mice
[6] = Metabolic stability in rat liver microsomes; settings: Sprague–Dawley rat liver microsomes
Molm-13 [7] = test: Cell viability; assay type: cell-based; settings: 30 μM, 72 h
ML-2 [8] = test: Cell viability; assay type: cell-based; settings: 30 μM, 72 h
Molm-13 [9] = test: Apoptosis assay AnnexinV/7-AAD; assay type: cell-based; settings: 30 μM, 24 h
ML-2 [10] = test: Apoptosis assay AnnexinV/7-AAD; assay type: cell-based; settings: 30 μM, 24 h

O=C1C2=C(CCN(Cc3ccccc3)C2)N2CCN=C2N1Cc1ccc(C(F)(F)F)cc1 [ONC212]
activation of the Gq pathway (IP-1) (Molm-13 cells): could not detect any activation of the Gq pathway
activation of the Gq pathway (IP-1) (ML-2 cells): could not detect any activation of the Gq pathway
increase in IP-1 not mediated by the receptor [1]: substantial increase in IP-1

lysophosphatidylcholine [LPC]
IC50 (G2A): > 10 µM

CCCCC/C=C\C=C\[C@H](O)CCCCCCCC(=O)O [9(R)-HODE]
βarr2 recruitment response (human G2A [2]): did not result in any observable NanoLuc complementation

O=C(NC(Cc1ccccc1)C(=O)O)c1cccc(OCc2cccnc2)c1 (centres unmarked) [Compound 1]
sensitization of capsaicin-induced TRPV1 responses ([3]; 1 μM compound, 2 min, capsaicin 100 nM 30 s): potently sensitize for capsaicin-induced TRPV1 responses; also recorded: comparable to that observed with 200 nM (±)9-HODE

CCCCC/C=C\C=C\C(O)CCCCCCCC(=O)O (centres unmarked) [9-HODE]
activation of the Gq pathway (IP-1) (Molm-13 cells): could not detect any activation of the Gq pathway
activation of the Gq pathway (IP-1) (ML-2 cells): could not detect any activation of the Gq pathway
increase in IP-1 not mediated by the receptor [1]: not been observed
βarr2 recruitment response (human G2A [2]): unable to stimulate the same degree of β-arrestin recruitment

O=C(N[C@H](Cc1ccccc1)C(=O)O)c1cccc(OCc2cccnc2)c1 [Compound 3, (R)-3-Phenyl-2-(3-(pyridin-3-ylmethoxy)benzamido)propanoic Acid]
partial agonism, share of maximal βarr2 recruitment observed with C9 (GPR1): approximately 50%
activation of the Gq pathway (IP-1) (Molm-13 cells): could not detect any activation of the Gq pathway
activation of the Gq pathway (IP-1) (ML-2 cells): could not detect any activation of the Gq pathway
times more active than the (S) distomer 2 (human G2A [4]): more than 30 times
solubility (Aqueous solubility): > 3000 µM
CL ([5]; 10 mg/kg sc): 140.8 mL/min/kg
behavior and clinical signs after dosing ([5]; iv or sc in PBS): no clinical signs observed
rat liver microsomes (remaining after 60 min) [6]: 98% ^c

Cc1ccccc1CN1C(=O)C2=C(CCN(Cc3ccccc3)C2)N2CCN=C12 [ONC201]
viable cells (Molm-13 [7]): strong reduction in viable
viable cells (ML-2 [8]): strong reduction in viable
induction of apoptosis (Molm-13 [9]): induction of apoptosis could be confirmed
induction of apoptosis (ML-2 [10]): induction of apoptosis could be confirmed

COc1ccc(-c2cc(C(=O)N[C@@H](Cc3ccccc3)C(=O)NC3CCCCC3)ccc2O)cc1 [Compound 56, (S)-N-(1-(Cyclohexylamino)-1-oxo-3-phenylpropan-2-yl)-6-hydroxy-4′-methoxy-[1,1′-biphenyl]-3-carboxamide]
effect on TRPV1 sensitization by T-10418 (100 nM) and 9-HODE (400 nM) ([3]; cotreatment with 10 μM antagonist): completely abolished
